Values of other authors in patent US20060216365A1, “Aromatherapeutic environmental system” (priority 2000, published 2006).

Key:
[1] = mice, literature (Hikino et al 1980)
[2] = mice, literature (Hikino et al 1980); remark: listed apart in the source
monoamine oxidase = conditions: literature (Truitt 1967)

Molecule | inhibition of stress-induced ulcer formation [1] | prolongation of hexobarbital-induced sleep / enhancement of hexobarbital anesthesis [2] | monoamine oxidase inhibiting activity (monoamine oxidase)
CC(=O)O[C@H]1C[C@@H]2C[C@H]3[C@@H]([C@H](OC(C)=O)C[C@H]3C)[C@]1(C)OC2(C)C [Kessyl glycol diacetate] | no inhibitory action | active principles | 
C=CCc1cc(OC)c2c(c1)OCO2 [myristicin] |  |  | mild degree
Kessyl glycol 2-acetate |  | active principles | 
Kessyl glycol 8-acetate |  | active principles | 
